Results as given in the NIST ThermoML archive (doi:10.1021/acs.jced.5b00654).
Several values for one entry are separate records, joined by “and”; a condition that tells them apart may be missing. Equal values may be shown once. Numbers after ± are expanded uncertainties.

Details: Fluid (supercritical or subcritical phases); for viscosity: Vibrating wire viscometry; for mass density: Buoyancy - hydrostatic balance with magnetic suspension - one sinker

## CCCC [butane]
348.15 K, 63.3 kPa
  viscosity: 0.008591 ± 0.00084 mPa·s
348.15 K, 337.86 kPa
  mass density: 7.2315 ± 0.025 kg/m3
  viscosity: 0.008603 ± 0.00084 mPa·s
348.15 K, 337.88 kPa
  mass density: 7.2315 ± 0.025 kg/m3
  viscosity: 0.008607 ± 0.00084 mPa·s
348.15 K, 338.38 kPa
  mass density: 7.2445 ± 0.025 kg/m3
  viscosity: 0.008599 ± 0.00084 mPa·s
348.15 K, 340.91 kPa
  mass density: 7.3031 ± 0.025 kg/m3
  viscosity: 0.008599 ± 0.00084 mPa·s
348.15 K, 454.98 kPa
  mass density: 9.9811 ± 0.029 kg/m3
  viscosity: 0.00861 ± 0.00084 mPa·s
348.15 K, 455.21 kPa
  mass density: 9.9833 ± 0.029 kg/m3
  viscosity: 0.00861 ± 0.00084 mPa·s
348.15 K, 516.69 kPa
  mass density: 11.497 ± 0.032 kg/m3
  viscosity: 0.008615 ± 0.00084 mPa·s
348.15 K, 516.76 kPa
  mass density: 11.497 ± 0.032 kg/m3
  viscosity: 0.008618 ± 0.00084 mPa·s
373.13 K, 106.93 kPa
  mass density: 2.0348 ± 0.017 kg/m3
  viscosity: 0.009211 ± 0.00085 mPa·s
373.13 K, 106.95 kPa
  mass density: 2.0363 ± 0.017 kg/m3
  viscosity: 0.009213 ± 0.00085 mPa·s
373.13 K, 106.98 kPa
  mass density: 2.037 ± 0.017 kg/m3
  viscosity: 0.00921 ± 0.00085 mPa·s
373.13 K, 157.77 kPa
  mass density: 3.0215 ± 0.018 kg/m3
  viscosity: 0.009217 ± 0.00085 mPa·s
373.13 K, 916.45 kPa
  mass density: 20.053 ± 0.05 kg/m3 and 20.052 ± 0.05 kg/m3
  viscosity: 0.009329 ± 0.00085 mPa·s and 0.009334 ± 0.00085 mPa·s
373.14 K, 57.69 kPa
  mass density: 1.0901 ± 0.015 kg/m3
  viscosity: 0.009211 ± 0.00085 mPa·s
373.14 K, 57.72 kPa
  mass density: 1.0901 ± 0.015 kg/m3
  viscosity: 0.009214 ± 0.00085 mPa·s
373.14 K, 57.76 kPa
  mass density: 1.0909 ± 0.015 kg/m3
  viscosity: 0.009207 ± 0.00085 mPa·s
373.14 K, 157.75 kPa
  mass density: 3.0215 ± 0.018 kg/m3
  viscosity: 0.00922 ± 0.00085 mPa·s
373.14 K, 210.39 kPa
  mass density: 4.0609 ± 0.019 kg/m3
  viscosity: 0.009225 ± 0.00085 mPa·s
373.14 K, 273.38 kPa
  mass density: 5.3326 ± 0.021 kg/m3
  viscosity: 0.00923 ± 0.00085 mPa·s
373.14 K, 274.72 kPa
  mass density: 5.3593 ± 0.021 kg/m3
  viscosity: 0.009227 ± 0.00085 mPa·s
373.14 K, 493.67 kPa
  mass density: 9.9707 ± 0.029 kg/m3
  viscosity: 0.009255 ± 0.00085 mPa·s
373.14 K, 493.81 kPa
  mass density: 9.9744 ± 0.029 kg/m3
  viscosity: 0.009247 ± 0.00085 mPa·s
373.14 K, 572.54 kPa
  mass density: 11.724 ± 0.032 kg/m3
  viscosity: 0.009263 ± 0.00085 mPa·s
373.14 K, 572.6 kPa
  mass density: 11.728 ± 0.032 kg/m3
  viscosity: 0.009259 ± 0.00085 mPa·s
373.14 K, 669.81 kPa
  mass density: 13.955 ± 0.036 kg/m3
  viscosity: 0.00928 ± 0.00085 mPa·s
373.14 K, 670 kPa
  mass density: 13.959 ± 0.037 kg/m3
  viscosity: 0.009283 ± 0.00085 mPa·s
373.14 K, 751.04 kPa
  mass density: 15.893 ± 0.04 kg/m3
  viscosity: 0.009293 ± 0.00085 mPa·s
373.14 K, 838.34 kPa
  mass density: 18.049 ± 0.044 kg/m3
  viscosity: 0.009315 ± 0.00085 mPa·s
373.14 K, 1095.4 kPa
  mass density: 24.953 ± 0.06 kg/m3
  viscosity: 0.009394 ± 0.00085 mPa·s
373.14 K, 1095.5 kPa
  mass density: 24.958 ± 0.06 kg/m3
  viscosity: 0.00939 ± 0.00085 mPa·s
373.14 K, 1123 kPa
  viscosity: 0.009464 ± 0.00085 mPa·s
373.14 K, 1262.7 kPa
  mass density: 30.019 ± 0.075 kg/m3
  viscosity: 0.009463 ± 0.00085 mPa·s
373.14 K, 1263 kPa
  mass density: 30.031 ± 0.075 kg/m3
373.15 K, 210.37 kPa
  mass density: 4.0602 ± 0.019 kg/m3
  viscosity: 0.009228 ± 0.00085 mPa·s
373.15 K, 344.33 kPa
  mass density: 6.7909 ± 0.024 kg/m3
  viscosity: 0.00923 ± 0.00085 mPa·s
373.15 K, 344.35 kPa
  mass density: 6.7909 ± 0.024 kg/m3
  viscosity: 0.009234 ± 0.00085 mPa·s
373.15 K, 392.71 kPa
  mass density: 7.8028 ± 0.025 kg/m3
  viscosity: 0.009241 ± 0.00085 mPa·s
373.15 K, 439.63 kPa
  mass density: 8.8018 ± 0.027 kg/m3
  viscosity: 0.009247 ± 0.00085 mPa·s
373.15 K, 441.23 kPa
  mass density: 8.8343 ± 0.027 kg/m3
  viscosity: 0.009243 ± 0.00085 mPa·s
373.15 K, 750.55 kPa
  mass density: 15.881 ± 0.04 kg/m3
  viscosity: 0.009298 ± 0.00085 mPa·s
373.15 K, 1366.4 kPa
  mass density: 33.46 ± 0.083 kg/m3
  viscosity: 0.009514 ± 0.00085 mPa·s
373.15 K, 1367.1 kPa
  mass density: 33.484 ± 0.083 kg/m3
  viscosity: 0.009518 ± 0.00085 mPa·s
423.11 K, 2532.5 kPa
  mass density: 59.203 ± 0.16 kg/m3
  viscosity: 0.01157 ± 0.00086 mPa·s
423.12 K, 2534 kPa
  mass density: 59.251 ± 0.16 kg/m3
  viscosity: 0.01158 ± 0.00086 mPa·s
423.13 K, 2535.6 kPa
  mass density: 59.303 ± 0.16 kg/m3
  viscosity: 0.01157 ± 0.00086 mPa·s
423.16 K, 195.54 kPa
  mass density: 3.2893 ± 0.018 kg/m3
  viscosity: 0.0104 ± 0.00085 mPa·s
423.16 K, 195.59 kPa
  mass density: 3.2893 ± 0.018 kg/m3
  viscosity: 0.0104 ± 0.00085 mPa·s
423.17 K, 450.91 kPa
  mass density: 7.7808 ± 0.025 kg/m3
  viscosity: 0.01045 ± 0.00086 mPa·s
423.17 K, 452.37 kPa
  mass density: 7.8076 ± 0.025 kg/m3
  viscosity: 0.01045 ± 0.00086 mPa·s
423.17 K, 1490.2 kPa
  mass density: 29.071 ± 0.074 kg/m3
  viscosity: 0.01078 ± 0.00086 mPa·s
423.17 K, 2272.3 kPa
  mass density: 50.31 ± 0.12 kg/m3
  viscosity: 0.01129 ± 0.00086 mPa·s
423.19 K, 654.26 kPa
  mass density: 11.533 ± 0.032 kg/m3
  viscosity: 0.0105 ± 0.00086 mPa·s
423.19 K, 1490 kPa
  mass density: 29.063 ± 0.074 kg/m3
  viscosity: 0.01078 ± 0.00086 mPa·s
423.19 K, 3006 kPa
  mass density: 79.774 ± 0.26 kg/m3
  viscosity: 0.01234 ± 0.00087 mPa·s
423.2 K, 653.48 kPa
  mass density: 11.519 ± 0.032 kg/m3
  viscosity: 0.01049 ± 0.00086 mPa·s
423.2 K, 2781.1 kPa
  mass density: 69.059 ± 0.2 kg/m3
  viscosity: 0.01191 ± 0.00087 mPa·s
423.2 K, 2781.6 kPa
  mass density: 69.058 ± 0.2 kg/m3
  viscosity: 0.01191 ± 0.00087 mPa·s
423.2 K, 3005.8 kPa
  mass density: 79.773 ± 0.26 kg/m3
  viscosity: 0.01233 ± 0.00087 mPa·s
423.2 K, 3170.2 kPa
  mass density: 89.28 ± 0.32 kg/m3
  viscosity: 0.01273 ± 0.00087 mPa·s
423.24 K, 1016.1 kPa
  mass density: 18.65 ± 0.046 kg/m3
  viscosity: 0.0106 ± 0.00086 mPa·s
423.25 K, 1015.9 kPa
  mass density: 18.648 ± 0.046 kg/m3
  viscosity: 0.01059 ± 0.00086 mPa·s
423.26 K, 884.12 kPa
  mass density: 15.981 ± 0.04 kg/m3
  viscosity: 0.01056 ± 0.00086 mPa·s
423.26 K, 884.38 kPa
  mass density: 15.987 ± 0.04 kg/m3
  viscosity: 0.01055 ± 0.00086 mPa·s
423.28 K, 3171.4 kPa
  mass density: 89.266 ± 0.32 kg/m3
  viscosity: 0.01273 ± 0.00087 mPa·s
423.47 K, 3280.9 kPa
  mass density: 96.663 ± 0.37 kg/m3
  viscosity: 0.01307 ± 0.00088 mPa·s
423.48 K, 3280.8 kPa
  mass density: 96.642 ± 0.37 kg/m3
  viscosity: 0.01306 ± 0.00088 mPa·s
424.21 K, 3176.8 kPa
  mass density: 88.401 ± 0.28 kg/m3
  viscosity: 0.01272 ± 0.00087 mPa·s
424.21 K, 3177 kPa
  mass density: 88.415 ± 0.28 kg/m3
  viscosity: 0.01273 ± 0.00087 mPa·s
428.08 K, 194.36 kPa
  mass density: 3.2322 ± 0.018 kg/m3
  viscosity: 0.01054 ± 0.00086 mPa·s
428.09 K, 194.34 kPa
  mass density: 3.2308 ± 0.018 kg/m3
  viscosity: 0.01053 ± 0.00086 mPa·s
428.09 K, 5149.9 kPa
  mass density: 360.26 ± 0.75 kg/m3
  viscosity: 0.04425 ± 0.0011 mPa·s
428.09 K, 5150.2 kPa
  mass density: 360.25 ± 0.75 kg/m3
